Results on 8 compounds are retold here after patent US8907089B2, “Fused heterocyclic ring derivative and use thereof” (Takeda Pharmaceutical Company Limited, priority 2009, dated 2014).

By inhibition is commonly meant the change of the read-out against control, counted positive when it falls.

Molecules are shown by their SMILES.

For one experiment, the system named is NIH-3T3/Gli reporter cells (Hedgehog signal, Gli reporter luciferase; Smo inhibitory action). The experiment in a line: Gli reporter luciferase assay in NIH-3T3/Gli reporter cells stimulated with mouse Shh-N end fragment. Particulars: NIH3T3; 1 μM compound; NIH-3T3/Gli reporter cells with mouse Shh-N end fragment culture supernatant, 48 hr; luciferase activity, control without compound as 100; read-out: inhibition rate (%) at 1 μM. In kind it is cell-based. From the text:
Inhibition of the Hedgehog signal transduction system can be measured, for example, by quantifying a decrease in the expression level of a reporter gene connected to the downstream of the Gli binding site based on the fluorescence intensity according to the following Experimental Example 1. Alternatively, it can be measured by quantifying the expression of Gli-1 mRNA in a cell extract by quantitative PCR method and the like. A compound that inhibits Hedgehog signal targets Smo, which can be confirmed, for example, by binding fluorescence-labeled Cyclopamine and a test compound to cells expressing Smo, measuring the fluorescence level of the cell, and comparing the value with that without addition of a test compound to find a decrease.
Gli reporter plasmid was constructed by inserting 8×Gli-binding site and chicken 8-crystalline promoter into the upstream of luc+ of pGL3 (Promega).
prepared in reference to the base sequence described in GenBank accession No.; X02187, and chicken genome DNA (Clontech) as a template. PCR reaction was performed using Pfu Turbo (Stratagene) and following the attached protocol. The obtained 108 bp fragment was digested with restriction enzymes BglII and HindIII, and inserted into BglII-HindIII site of pGL3 to give plasmid pGL3/δ-cry promoter.
As 8×Gli-binding site, a sequence containing eight 9-bp Gli bound consensus sequences (GACCACCCA) described in Yoon et al., J. Biol. Chem., vol. 273, pages 3496-3501 (1998) was prepared from synthetic DNA. That is, two synthetic DNAs,
were heat treated at 95° C. for 2 minutes, and incubated at 37° C. for 1 hr for annealing to give a double stranded DNA of the above-mentioned two synthetic DNAs. The obtained double stranded DNA was digested with restriction enzymes BglII and KpnI, and the obtained DNA fragment was inserted into BglII-KpnI site of pGL3/8-cry promoter to construct plasmid pGL3/8-cry promoter, 8×Gli binding site, i.e., Gli reporter plasmid. 2. Construction of plasmid for expression of mouse Shh-N end Fragment
HEK293 cells were grown in D-MEM medium (Invitrogen) containing 10% fetal bovine serum in a 10 cm dish and pcDNA3.1/mShh-N was introduced into the cells using FuGENE6 (Roche Applied Science). Thereafter, the HEK293 cells were cultured in a carbon dioxide gas incubator at 37° C. for 24 hours, and the medium was exchanged with D-MEM medium (Invitrogen) containing 2% fetal bovine serum. After culturing for 48 hr, a culture supernatant containing recombinant type mouse Shh-N end fragment was obtained by filtration using a filter ([…]).
Using D-MEM (Invitrogen) containing 10% fetal bovine serum, expression plasmid pcDNA3.1 and Gli reporter plasmid (pGL3/8-cry promoter, 8×Gli binding site) produced by the method of Experimental Example 1 were introduced into NIH-3T3 cells grown in a 10 cm dish by the use of FuGENE6 (Roche Applied Science).
After culture for 24 hr, the cells were recovered, suspended in D-MEM medium containing 10% fetal bovine serum and supplemented with Geneticin (Life Technologies Oriental, Inc.) to a final concentration of 500 μg/ml, diluted to 10^4 cells/ml, plated on a 96 well plate, and cultured in a carbon dioxide gas incubator at 37° C. to give Geneticin resistant transformed cell line.
The obtained transformed cell line was cultured in a 96 well plate, mouse Shh-N end fragment obtained in Experimental Example 3 was added, and NIH-3T3/Gli reporter cell, which is a cell line capable of induction of luciferase expression, was selected.
NIH-3T3/Gli reporter cells cultured in D-MEM (Invitrogen) containing 10% fetal bovine serum were plated in a 96 well white plate at 1×10^4 cells/well, and cultured overnight in a carbon dioxide gas incubator at 37° C. The medium was removed, a compound (50 μl) and culture supernatant of mouse Shh-N end fragment-expressing HEK293 (D-MEM medium containing 2% fetal bovine serum, 50 μl) were added, and the cells were cultured for 48 hr in a carbon dioxide gas incubator at 37° C. […]
Take `CCc1cc2c(c(OCC(F)(F)F)c(C(=O)NC3CCN(C(=O)CO)CC3)n2C)c(=O)n1-c1ccc(C(F)(F)F)cc1` [Example 9, 6-ethyl-N-[1-(hydroxyacetyl)piperidin-4-yl]-1-methyl-4-oxo-3-(2,2,2-trifluoroethoxy)-5-[4-(trifluoromethyl)phenyl]-4,5-dihydro-1H-pyrrolo[3,2-c]pyridine-2-carboxamide]: the inhibition at 1 µM turned out to be 97%.

`CCc1cc2c(c(OCC(F)(F)F)c(C(=O)NC3CCN(C(=O)CO)CC3)n2C)c(=O)n1-c1ccc(F)cc1` [Example 20, 6-ethyl-5-(4-fluorophenyl)-N-[1-(hydroxyacetyl)piperidin-4-yl]-1-methyl-4-oxo-3-(2,2,2-trifluoroethoxy)-4,5-dihydro-1H-pyrrolo[3,2-c]pyridine-2-carboxamide]: the inhibition at 1 µM was 96%.

`Cc1ccc(-n2c(C)cc3c(c(OCC(F)(F)F)c(C(=O)NC4CCN(C(=O)CO)CC4)n3C)c2=O)cc1` [Example 8, N-[1-(hydroxyacetyl)piperidin-4-yl]-1,6-dimethyl-5-(4-methylphenyl)-4-oxo-3-(2,2,2-trifluoroethoxy)-4,5-dihydro-1H-pyrrolo[3,2-c]pyridine-2-carboxamide]: the inhibition at 1 µM came out at 97%.

Consider `CCOc1c(C(=O)NC2CCN(C(=O)CO)CC2)n(C)c2cc(CC)n(-c3ccccc3)c(=O)c12` [Example 3, 3-ethoxy-6-ethyl-N-[1-(hydroxyacetyl)piperidin-4-yl]-1-methyl-4-oxo-5-phenyl-4,5-dihydro-1H-pyrrolo[3,2-c]pyridine-2-carboxamide], for which the inhibition at 1 µM was found to be 97%.

`CCc1cc2c(c(OCC(F)(F)F)c(C(=O)NC3CCN(C(=O)CO)CC3)n2C)c(=O)n1-c1cccc(F)c1` [Example 15, 6-ethyl-5-(3-fluorophenyl)-N-[1-(hydroxyacetyl)piperidin-4-yl]-1-methyl-4-oxo-3-(2,2,2-trifluoroethoxy)-4,5-dihydro-1H-pyrrolo[3,2-c]pyridine-2-carboxamide]: the inhibition at 1 µM came to 99%.

Turning to `CCc1cc2c(c(OC(C)C)c(C(=O)NC3CCN(C(=O)CO)CC3)n2C)c(=O)n1-c1ccc(F)cc1` [Example 22, 6-ethyl-5-(4-fluorophenyl)-N-[1-(hydroxyacetyl)piperidin-4-yl]-1-methyl-3-(1-methylethoxy)-4-oxo-4,5-dihydro-1H-pyrrolo[3,2-c]pyridine-2-carboxamide], the inhibition at 1 µM amounted to 97%.

In a further experiment the test system is mouse medulloblastoma (Patched 1(+/-), p53(-/-)) subcutaneously transplanted into nude mouse. Description: In vivo anti-tumor test, mouse medulloblastoma allogeneic transplantation model. The settings on record: 1 mg/kg, orally twice a day for 2 weeks, 0.5% methylcellulose suspension; nude mouse with subcutaneous medulloblastoma; at the end of the test; p < 0.025 (Dunnett's test). On the procedure:
According to the description in Sasaki, K. et al., (2006) Cancer Res. 66: 4215-4222, an anti-tumor effect of a compound was evaluated using a mouse medulloblastoma allogeneic transplantation model. To be precise, Patched 1 gene mutant mouse (lineage name: Ptch1tm1Mps/J) was purchased from The Jackson Laboratory and p53 gene mutant mouse (lineage name: P53N4-M, Nomenclature: B6.129-Trp53tm/BrdN4) was purchased from Taconic, and a mouse of Patched 1(+/−), p53(−/−) phenotype was prepared by mating. […]
An anti-tumor test was performed using a tumor passaged by subcutaneous transplantation. […] The tumor diameter after transplantation was measured and, when the tumor size reached 150-250 mm^3, the anti-tumor test was started using 5 mice per group.
The test compound was prepared to achieve a dose of 1 mg/kg with a 0.5% methylcellulose (Shin-Etsu Chemical Co. Ltd., Cat. No. SM-100) suspension, and orally administered twice a day for 2 weeks. The tumor size was calculated based on the longer diameter and shorter diameter of the tumor measured with an electron vernier caliper. After the start of the test, the tumor size was measured every 2 or 3 days and the growth rate of the tumor size was calculated. […]
In the case of `CCc1cc2c(c(OC(C)C)c(C(=O)NC3CCN(C(=O)CO)CC3)n2C)c(=O)n1-c1ccc(F)cc1` [Example 7, 6-ethyl-5-(4-fluorophenyl)-N-[1-(hydroxyacetyl)piperidin-4-yl]-1-methyl-3-(1-methylethoxy)-4-oxo-4,5-dihydro-1H-pyrrolo[3,2-c]pyridine-2-carboxamide], the “T/C (%) growth rate of the tumor size” value came out at 40%.

Regarding `CCc1cc2c(c(OCC(F)(F)F)c(C(=O)NC3CCN(C(=O)CO)CC3)n2C)c(=O)n1-c1ccc(F)cc1` [Example 5, 6-ethyl-5-(4-fluorophenyl)-N-[1-(hydroxyacetyl)piperidin-4-yl]-1-methyl-4-oxo-3-(2,2,2-trifluoroethoxy)-4,5-dihydro-1H-pyrrolo[3,2-c]pyridine-2-carboxamide], the “T/C (%) growth rate of the tumor size” value came out at 42%.
